Data on three compounds can be found in patent US10071983B2, “Activatable fluorogenic compounds and uses thereof as near infrared probes” (Ramot at Tel-Aviv University Ltd., priority 2011, dated 2018).

Series [1] has as its system HeLa cells. Description: Cell permeability, confocal imaging of HeLa cells. The series is classed as cell-based. The protocol:
HeLa cells were incubated overnight with Compound 9 in PBS 7.4, and the cells was thereafter imaged by confocal microscope.
A colocalization assay of Compound 25 was conducted with the lysosome marker lysosensor. Sample was excited with a 561 nm laser line and fluorescence acquired from 570 nm to 800 nm.

Series [2] in a line: Extinction coefficient calculation (absorbance vs concentration). In kind it is physicochemical. The source says:
FIG. 7 presents linear plots of QCy7 as measured at 1 cm cuvette, at the indicated concentrations in PBS 7.4, at the maximum wavelength of QCy7 (560 nm). εQCy7=26848[M^−1cm^−1]
FIG. 10 presents linear plots of Sulfo-QCy7 as measured at 1 cm cuvette, at the indicated concentrations in PBS 7.4, at the maximum wavelength of Sulfo-QCy7 (590 nm). εSulfo-QCy7=52235[M^−1cm^−1]

The nature of series [3]: Fluorescence quantum yield calculation against a reference dye. The series is classed as physicochemical. The settings on record: PBS 7.4. As to the method:
Cresyl-violet-perchlorate (as presented hereinbelow) was chosen as a reference compound for the determination of QCy7 quantum yield.
(§1) FIG. 5 presents the data obtained for fluorescence intensity vs. wavelength of standard sample (Cresyl violet; FIG. 5A), and test sample (QCy7; FIG. 5B), at the indicated concentrations. The measurements were performed in a 1 cm cuvette using Fluoromax-3 fluorometer; at an excitation wavelength of 560 nm. Cresyl violet was dissolved in methanol and Compound 1 in PBS 7.4 (just generating QCy7).
Conversion to the absolute quantum yield is achieved through the following equation: ΦX=ΦST(GradX/GradST)(η^2X/η^2ST) where the subscripts ST and X denote standard and test respectively, Φ is the fluorescence quantum yield, Grad the gradient from the plot of integrated fluorescence intensity vs. absorbance (see, FIG. 6), and η the refractive index of the solvents. ΦCresyl-violet=0.55 [Stefan et al. ([…]) J. Phys. Chem. 86, 1738-1742].
QCy7 was chosen as a reference compound for the determination of Sulfo-QCy7 quantum yield.
(§2) FIG. 8 presents the data obtained for fluorescence intensity vs. wavelength of standard sample (QCy7; FIG. 8A), and test sample (Sulfo-QCy7, generated from Compound 9; FIG. 8B), at the indicated concentrations. The measurements were performed at a 96-wells plate reader using Fluoromax-3 fluorometer; at an excitation wavelength of 560 nm. Both samples were dissolved in PBS 7.4.
The absolute quantum yield was calculated as described hereinabove and found to be: […]

The nature of series [4]: NIR fluorescence emission spectrum of dye compounds. The series is classed as physicochemical. The settings on record: for fluorescence emission peak in the NIR region: PBS 7.4; for λmax: Table 1, λmax (fluorescence emission).
Source text: (§3) Compound 1 (which generates the dye compound QCy7 deprotonation) was obtained as an orange crystalline powder. FIGS. 4A and 4B present the UV-Vis spectrum of Compound 1 (FIG. 4A), compared to that of the acetate Compound 3 (FIG. 4B). […] The obtained large stokes shift between the excitation and the emission wavelengths of about 150 nm is a desirable feature for fluorescence probes, which assists in increasing the signal-to-noise ratio.
as §1, §2

Assay in series [5]: as above
In kind it is physicochemical. As to conditions: PBS 7.4 [50 μM], excitation 570 nm, cutting filter >690 nm.

The subject of series [6] is HeLa cells. Put plainly: Two-photon excitation with NIR laser in HeLa cells. In kind it is cell-based. As to conditions: incubated with HeLa cells and PBS 7.4. The protocol: Fluorescent dyes, which absorb at wavelengths of 350-550 nm, can be excited in NIR region with a two-photon laser.
Compound 25 was incubated with HeLa cells and PBS 7.4.

The nature of series [7]: UV-Vis absorption spectrum of dye compounds. In kind it is physicochemical.
Source text: as §3
Compound 14 is composed from a phenol latent donor and two different acceptors; a picolinium moiety and an indolium moiety (see, Scheme 3). Deprotonation of the phenolic dye leads to formation of new donor-acceptor pair fluorochrome.
Compound 18 is composed of a phenol latent donor and two identical acceptors based on a picolinium moiety (see, Scheme 4). Deprotonation of the phenolic form leads to formation of new donor-acceptor pair fluorochrome.
Compound 25 is composed of a phenol latent donor and three acceptors; two picolinium moieties and one indolium moiety (see, Scheme 5). Deprotonation of the phenolic compound leads to formation of three resonance donor-two-acceptor structures of new fluorochrome.
The chemical 2D structures and spectroscopic data obtained for exemplary dye molecules according to embodiments of the present invention are presented in Table 1.

Series [8] can be described thus: pKa measurement by UV-Vis absorbance as a function of pH. In kind it is physicochemical. As to conditions: buffers at the indicated pH; 50 μM in buffers, phenol form. The protocol: The pKa values of exemplary compounds according to some embodiments of the present invention, Compounds 14, 18 and 25, was measured by monitoring their UV-Vis absorbance as a function of the environment pH. The tested compounds, at a concentration of 50 μM were dissolved in the respective buffers at the indicated pH and their absorbance was measured.

A short description of series [9]: Aqueous stability in PBS 7.4 at 37° C., NIR emission over 72 hours. In kind it is physicochemical. As to conditions: PBS 7.4 [25 μM]. The protocol: The aqueous stability of the cyanine-like dye compound presented herein was tested and compared to that of the cyanine molecule Cy7.
All tested compounds were incubated in PBS 7.4 [25 μM], at 37° C., and their NIR fluorescent emission was monitored over 72 hours. FIG. 15 presents the normalized intensity of NIR fluorescent emission of dyes generated from Compound 9 (green circles; Sulfo-QCy7), Compound 14 (blue diamonds), Compound 18 (red squares), Compound 25 (orange triangles) and Compound 1 (blank navy squares; QCy7) as a function of incubation time.

For series [10] the following is noted: in methanol; Stefan et al. 1992; cited from earlier work.

The structures appear in SMILES notation. “And” between values parts separate entries of the source, which are not always exact repeats. Identical values can stand only once.

`CC1(C)C(/C=C/c2ccc(O)c(/C=C/C3=[N+](CCCS(=O)(=O)[O-])c4ccccc4C3(C)C)c2)=[N+](CCCS(=O)(=O)[O-])c2ccccc21` [Compound 9]: in the series on HeLa cells [1] (HeLa cells incubated overnight, PBS 7.4), the “fluorescence inside vs outside the cells” value was “higher fluorescence inside the cells”. In addition, the “extinction coefficient ε” value in [2] (PBS 7.4, 1 cm cuvette, at maximum wavelength (QCy7 560 nm, Sulfo-QCy7 590 nm)) was 52235 M⁻¹ cm⁻¹. Moreover, the extinction coefficient in series [2] (rounded value) is 52,000 mol^−1 cm^−1. In addition, in [3], the quantum yield is listed as 16%. For the same compound, in series [4], the “fluorescence emission peak in the NIR region” value worked out at 720 nm and the λmax was 710 nm. Besides, the “appearance under NIR imaging camera” value in series [5] is listed as “exhibits well-observed NIR fluorescence”.
In general, pKa refers to the pH at which an ionisable group is half protonated. Read a high pKa as a group that holds its proton tightly. As to `C[n+]1ccc(/C=C/c2cc(/C=C/C3=[N+](CCCS(=O)(=O)O)c4ccccc4C3(C)C)cc(/C=C/c3cc[n+](C)cc3)c2O)cc1` [Compound 25], the “two-photon excitation spectrum wavelengths” value in the series on HeLa cells [6] is listed as 800-1000 nm. In addition, in the series with HeLa cells [1] (HeLa cells, excitation 561 nm, 570-800 nm), the “cellular localization (colocalization with lysosensor)” value is “accumulation of the dye in the lisosomal vesicles indicates cell-penetration through endocytosis mechanism”. The “chemical stability in cell-medium” value in the series on HeLa cells [1] (overnight incubation with cells) was “chemical stability after overnight in cell-medium”. Further, the “NIR fluorescence under acidic condition of the lysosome” value in the series with HeLa cells [1] (pH of about 5) is recorded as “emitted NIR fluorescence even under the acidic condition of the lysosome”. Besides, the “UV-Vis absorption peak maximum” value in series [7] (PBS 7.4) was 330 nm and 550 nm. In series [7] (Table 1, first λmax column (absorption peaks)), this compound gave a λmax of 550 nm. In addition, the quantum yield in series [3] is 16%. Moreover, in [4], the “fluorescence emission peak in the NIR region” value is reported as 680 nm and the λmax is recorded as 650 nm. The compound also had a pKa in [8] of 5.4. In addition, the “aqueous stability compared with Cy7” value in [9] is recorded as “increase aqueous stability than that of Cy7”.
As for `N=c1cc2oc3cc(N)ccc3nc-2c2ccccc12.[O-][Cl+3]([O-])([O-])O` [Cresyl-violet, Cresyl-violet-perchlorate], in series [10], the “fluorescence quantum yield of reference” value is recorded as 0.55.
